Results from patent US9480751B2, “Albumin binding probes and drug conjugates thereof” (priority 2011, dated 2016).

Assays:
[1] = said to have; cited from earlier work
[2] = Hydrophobic chromatography (analytical HPLC, chromolite RP-18e) as estimate of overall lipophilicity; conditions: chromolite R.P-18e column, mixture of 40 μg each, FIG. 3
Description: Analytical reverse phase-HPLC was performed using a pre-packed Chromolith™ Performance RP-18e column (4.6×100 mm, Merck, Darmstadt, Germany). The column was eluted with a binary gradient of 10-100% solution B over 10 min with a flow rate of 3 ml/min (solution A was 0.1% trifluoroacetic acid in H2O and solution B was 0.1% trifluoroacetic acid in acetonitrile:H2O; 3:1, v/v).
This approach of hydrophobic chromatography yields an estimate of the overall lipophilicity of peptide analogs (Shechter et al., 2010).

CD1-mice = assay: Blood glucose levels in CD1 mice after a single administration; format: in vivo
Description: (§1) Each point is the arithmetic mean of n=6 mice±SE.
as §1
Blood glucose levels were determined at varying time points following administration of insulin, exendin-4, and their derivatives in blood aliquots taken from the tail vein. Glucose analyzer (Beckman Instruments Fullerton, Calif.) was used. Groups consisted of six mice each. Data are presented as means±SE.

[3] = background statement; cited from earlier work
[4] = single subcutaneous 0.25 nmole/mouse, CD1 mice

| Substance | Duration of action [1] | Rt value, hydrophobic chromatography (estimate of overall lipophilicity) [2] | Blood glucose level 48 hrs after administration (last time point) (CD1-mice; intravenous 0.25 nmole/mouse) | t1/2 value of glucose-lowering (CD1-mice; single intravenous 0.25 nmole/mouse, CD1 mice) | Glucose level reached after administration (CD1-mice; [4]) | Period over which glucose remained at low level (CD1-mice; [4]) | t1/2 value of glucose-lowering (CD1-mice; [4]) | Glucose level reached after administration (CD1-mice; single subcutaneous 0.25 nmole/mouse, CD1 mice, listed as HO3S—(CH2)15—CO-exendin-4) | t1/2 of glucose reduction (CD1-mice; subcutaneous and intravenous administration, stated together) | t1/2 in plasma [3] | t1/2 of glucose-lowering effect (CD1-mice; single subcutaneous 0.69 nmole/mouse, CD1 mice) |
| --- | --- | --- | --- | --- | --- | --- | --- | --- | --- | --- | --- |
| N^εB29-tetradecanoyl des(B30) insulin [insulin-detemir] | up to 24 hours | 9.107 min |  |  |  |  |  |  |  |  |  |
| exendin-4-CO—(CH2)15—SO3^− |  |  | still low | 28 ± 2 h | 70 ± 5 mg/dL | ~24 h | 32 ± 2 h | 70+5 mg/dl | 28 to 32 h |  |  |
| insulin: Human (Zn^2+-free) insulin |  | 7.312 min |  |  |  |  |  |  |  | 5 to 6 min | 2 ± 0.2 h |
